From PMC4481117 (Molecular Pain, 2015)
pEC50: −log10 of the molar value.

What was measured:
[1] = test system: k-opioid receptors; parameters: method as in PMID 10973443, PMID 16364815, PMID 22424981; details: cited from earlier work
[2] = target: T1, Mac-1 (Mac-1-expressing HEK293 cells) (Homo sapiens, UniProt P05107+P11215); experiment: Adhesion of Mac-1-HEK293 cells to immobilized peptide; type: cell-based; details: 30 min at 37 °C
T1 construct: expressed in transfected cells
Method: For testing the role of glucosaminoglycans in cell adhesion, dynorphin A-coated wells were preincubated with 100 μl of 10 μg/ml of chondroitin sulfate A, chondroitin sulfate B and heparin. Aliquots (5x10^4cells) were added to the wells coated with 2 μM dynorphin A and adhesion was performed as described in A. Adhesion in the absence of Mac-1 inhibitors and glucosaminoglycans was assigned a value of 100 %. The data shown are the means ± S.E. from four separate experiments each with triplicate measurements. d , microtiter plate wells were coated with different concentrations of dynorphin B and adhesion of Mac-1-expressing and wild-type HEK293 cells was determined as described in A. The data shown are means of triplicate determinations, and error bars represent S.E. The figure is representative of 5 experiments. e. calcein-labeled Mac-1-HEK293 cells were preincubated without or with 10 μg/ml of mAb 44a and heparin, added to the wells coated with 20 μM of dynorphin B and adhesion was performed as described in A. Adhesion in the absence of inhibitors was assigned a value of 100 %.
Adhesion assays were performed essentially as described previously. […] Cells were labeled with 10 μM calcein for 30 min at 37 °C and washed twice with Hanks’ Balanced salt solution (HBSS) containing 0.1 % BSA. Aliquots (100 μl) of labeled cells (5x10^5/ml) were added to each well and allowed to adhere for 30 min at 37 °C. The non-adherent cells were removed by two washes with PBS. Fluorescence was measured in a CytoFluorII fluorescence plate reader (Perceptive Biosystems, Framingham, MA). In inhibition experiments, cells were mixed with different concentrations of peptides, NIF or mAbs for 20 min at 22 °C before they were added to the wells coated with adhesive substrates. In a separate set of experiments, after coating plates with dynorphins and post-coating with 1 % PVP, plates were incubated with 100 μl of 10 μg/ml chondroitin sulfate A, chondroitin sulfate B, or heparin for 20 min at 22 °C. After aspirating the solution, labeled cells were added and cell adhesion was analyzed as above.

[3] = test system: wild-type HEK293 cells; experiment: Adhesion of wild-type HEK293 cells to immobilized peptide; type: cell-based, Human; details: coated wells, calcein-labeled cells, 30 min at 37 °C
Method: Fig. 3 Adhesion of Mac-1-expressing cells to Dyn A and Dyn B. a, Mac-1-expressing and wild-type HEK293 cells were labeled with calcein and 5x10^4 cells were added to the wells coated with different concentrations of the Dyn A. After 30 min at 37 °C, nonadherent cells were removed and fluorescence was measured. The data shown are means of triplicate determinations, and error bars represent S.E. The figure is representative of 8 experiments. b , adhesion of HEK293 cells expressing Mac-1, LFA and the I-less form of Mac-1 to Dyn A and Dyn B immobilized at 10 μM was determined as described in A. c, calcein-labeled Mac-1-HEK293 cells were preincubated without or with 10 μg/ml of anti-αM mAb 44a or 1 μg/ml NIF for 15 minutes. For testing the role of glucosaminoglycans in cell adhesion, dynorphin A-coated wells were preincubated with 100 μl of 10 μg/ml of chondroitin sulfate A, chondroitin sulfate B and heparin. […]
Adhesion assays were performed essentially as described previously. […] Fluorescence was measured in a CytoFluorII fluorescence plate reader (Perceptive Biosystems, Framingham, MA). […] After aspirating the solution, labeled cells were added and cell adhesion was analyzed as above.

[4] = test system: rat mast cells; details: cited from earlier work
Excerpt: (§1) Apart from their effects on κ-opioid receptors on neurons, Dyn A exerts numerous effects on leukocytes, particularly myeloid cells. […] In addition, Dyn A (residues 1–13) and Dyn A (residues 1–9) stimulate ...

[5] = test system: macrophage; details: cited from earlier work
Excerpt: as §1

[6] = test system: macrophages; details: cited from earlier work
Excerpt: as §1

[7] = test system: GST; experiment: Solid-phase binding of GST (control); details: immobilized Dyn A; % of the αMI-domains; not shown
Method: Microtiter plates were coated with different concentrations of the fibrinogen D100 fragment or Dyn A overnight at 4 °C and post-coated with 3 % BSA for 1 h. The GST-αMI-domains in 20 mM Tris–HCl, pH 7.4, 100 mM NaCl, 1 mM MgCl2, 1 mM CaCl2, 0.05 % Tween 20, and 5 % glycerol were added to the wells and incubated for 1.5 h at 22 °C. After washing, the plates were incubated with an anti-GST mAb at a 1:5000 dilution for 1 h at 22 °C. After washing, goat anti-mouse IgG conjugated to alkaline phosphatase was added for 1 h and the binding of the αMI-domains was detected by reaction with p-nitrophenyl phosphate measuring the absorbance at 405 nm. Background binding to BSA was subtracted.

In the case of `CC[C@H](C)[C@H](NC(=O)[C@H](CCCNC(=N)N)NC(=O)[C@H](CCCNC(=N)N)NC(=O)[C@H](CC(C)C)NC(=O)[C@H](Cc1ccccc1)NC(=O)CNC(=O)CNC(=O)[C@@H](N)Cc1ccc(O)cc1)C(=O)N[C@@H](CCCNC(=N)N)C(=O)N1CCC[C@H]1C(=O)N[C@@H](CCCCN)C(=O)N[C@@H](CC(C)C)C(=O)N[C@@H](CCCCN)C(=O)N[C@@H](Cc1c[nH]c2ccccc12)C(=O)N[C@@H](CC(=O)O)C(=O)N[C@@H](CC(N)=O)C(=O)N[C@@H](CCC(N)=O)C(=O)O` [Dyn A], the κ-opioid receptor binding [1] is listed as “binds preferentially to the k-opioid receptors”, the “Coating concentration giving saturable adhesion” value ([2]; Mac-1-HEK293 cells) is listed as ~ 2 μM and the “Adhesion of Mac-1-HEK293 cells (in words)” value ([2]; coated wells, calcein-labeled cells) is listed as “strongly adhered”. For the same compound, the pEC50 ([2]; read-out: Coating concentration required to reach 50 % of maximal cell adhesion, Mac-1-HEK293 cells, fluorescence of calcein) was 6.30 to 6.70, the “Adhesion of wild-type HEK293 cells (in words)” value [3] was “adhered only slightly” and the “Degranulation and histamine release” value [4] was “induce degranulation and histamine release from rat mast cells”. The Superoxide generation [5] was “stimulate macrophage superoxide generation”, the Zymosan-triggered oxidative burst [5] was “enhance macrophage zymosan-triggered oxidative burst” and the Nitric oxide release ([5]; induced by LPS and IFN-γ) was “decrease nitric oxide release induced by LPS and IFN-γ”. For the same compound, the “Secretion of IL-1 and TNFα” value [6] was “increase secretion of IL-1 and TNFα by macrophages” and the “Binding of GST to Dyn A relative to the αMI-domains” value [7] was “less than 5%”.
